The experiment concerns allergic reaction at the conjunctiva sites (vascular hyperpermeability) of Wistar rats. The experiment in a line: Rat passive allergic conjunctivitis model, Evans blue dye leakage (absorbance at 620 nm). The note with it: Example 2, FIG. 1, presence or absence of the component. It counts as in vivo.

Excerpt: As a trigger solution was used a solution prepared by mixing equal volumes of 1% (w/v) ovalbumin (Grade V; manufactured by Sigma-Aldrich Co. LLC)/physiological saline (manufactured by Otsuka Pharmaceutical Co., Ltd.) and 1% (w/v) Evans blue (manufactured by Wako Pure Chemical Industries, Ltd.)/physiological saline.
As an extraction solution was used an aqueous solution of acetone (manufactured by Wako Pure Chemical Industries, Ltd.)/0.5% (w/v) sodium sulfate (manufactured by Wako Pure Chemical Industries. Ltd.) (7:3).
After 48 h, 1 mL of the trigger solution was intravenously administered to trigger an allergic reaction at the conjunctiva sites. Then, each test solution was dropped onto the eyes at 15 min before and immediately before triggering the allergic reaction (the total of 2 times). […] The overnight extraction solution was centrifuged to recover a supernatant. Absorbance of the supernatant was measured at 620 nm.
Vascular hyperpermeability caused by an allergic reaction results in leakage of Evans blue. Thus, the less the amount of leakage of the dye, the more the vascular hyperpermeability is suppressed. This should be an indicator of the antiallergic effects. The amount of leakage of dye per tissue unit (gig/g) was calculated by using a predetermined standard curve. A dye amount ratio was calculated using the following equation to give an indicator of the suppression effects. […]

For the molecule `O=C([O-])O.[Na+]` [sodium bicarbonate], the “Contribution of the component to the antiallergic action when combined with ketotifen fumarate (group 6 compared with group 7, 8 or 10)” value is “can contribute to an antiallergic action”.
`[Cl-].[Na+]` [sodium chloride]: the “Contribution of the component to the antiallergic action when combined with ketotifen fumarate (group 6 compared with group 7, 8 or 10)” value is on record as “can contribute to an antiallergic action”.

These data come from patent US20180311225A1, “EXTERNAL PREPARATION” (TEIKA PHARMACEUTICAL CO., LTD., priority 2015, published 2018).
